In patent US12023421B2, “Medical devices for continuous delivery of therapeutic agents” (Adenopaint LLC, priority 2019, dated 2024):
Values after ≈ are worked out from the molar mass of the structure shown.

What was measured:
[1] = In vitro drug elution from coated guidewires in phosphate-buffered saline at 37° C. (UV 260 nm); assay type: physicochemical
Description: FIG. 4 illustrates representative time release of a therapeutic agent, adenosine, from the distal 10 cm of three guidewires with two coats of PVA/PVP polymer cured with 2 freeze/thaw cycles. The inner therapeutic coat was a 7.5% (w/w) of PVA/PVP with 1.5 mg of adenosine added as described in the application. The outer barrier layer was made of 10.0% (w/w) of PVA/PVP. The guidewire was placed in a beaker containing phosphate-buffered saline at 37° C. that was constantly stirred with a magnetic device. Samples were taken periodically from the beaker and analyzed for adenosine amount by UV spectrophotometry (absorption at 260 nm). Note the complete elution of the drug in a curvilinear fashion over 60 minutes.
Note that elution was more rapid with greater than 90% eluted over 20 minutes.
FIG. 6 illustrates a representative example of an extremely rapid elution of another drug diltiazem utilizing a polymer with a ratio of PVA/PVAC and two freeze/thaw cycles. The drug was completely eluted over 10 minutes.
Utilizing the same protocol as Example 1, the freeze/thaw cycles were increased to 3-8 and the barrier concentration was increased to 15.0% (w/w). Utilizing adenosine as the prototype therapeutic agent the elution profile was increased with the majority of drug elution occurring in 30 min.

Yucatan mini-pigs = experiment: Acetylcholine-induced coronary vasoconstriction (no-reflow) in the pig (Example 6, second protocol); assay type: in vivo; settings: 0.3 to 1.0 mg/min infused into the LAD for 20 to 30 min; preliminary studies
Description: Animal Studies: All porcine studies were approved by Institutional Animal Care and the Committee of Synchrony Labs LLC, NC. Yucatan mini pigs (25 to 30 Kg) were premeditated with Telazol (5 mg/Kg). Anesthesia was maintained with 1% isoflurane and supplemental oxygen to maintain a pH of 7.4±0.6. Animals received aspirin 300 mg orally for three days prior to the study and were anticoagulated throughout the procedure with heparin (150 units/kg) to maintain ACT greater than 300. Heart rate, EKG changes and blood pressure were monitored continuously utilizing leads I, AVF and AVL with a 6 F sheath in the left femoral artery. […] Coronary blood flow velocity (CFV) was measured utilizing a 0.014-inch Doppler flowwire (Combowire, Volcano Corporation, Rancho Cordova, CA, USA) and dedicated software. CFV was measured as a continuous average pulse wave velocity over 4 seconds and mean values were recorded every 60 seconds.
In the second protocol the ability of the wire to prevent and reverse intense vasoconstriction induced by intracoronary administration of acetylcholine (Ach) was evaluated. […] In other experiments, we evaluated whether an adenosine-releasing wire could prevent the NRF by placing the adenosine-loaded wire initially into the LAD. […]
For statistical analyses, data are expressed as mean±SEM. […]

[2] = In vitro release studies in 0.9% saline at 37° C. (Example 6); assay type: physicochemical
Description: In vitro release studies were performed in 0.9% saline rather than in plasma or blood because adenosine has a short half-life (seconds) in the latter two media making detection difficult. Tubes containing 15 ml saline were maintained at 37° C. and 10 cm of the spaced coiled section of the guidewire was placed serially in tubes for 0 to 5, 5 to 10, 10 to 20, 20 to 30, 30 to 40, 40 to 50, and 50 to 60 minutes. One ml samples were then taken from the tube to measure the concentration of adenosine by spectrophotometry (Jackson E K, Mi Z, Koehler M T, Carcillo J A Jr, Herzer W A. Injured erythrocytes release adenosine deaminase into the circulation. J Pharmacol Exp Ther 1996; 279: 1250-60).

[3] = Particle size stability of jet-milled adenosine in hydrogel (laser diffraction and optical microscopy); assay type: physicochemical; settings: after one week in the hydrogel; particles less than 5 microns
Description: Next, the inner drug layer was prepared. In this regard, a 20% w/w solution of PVA/PVP (99:1 mass ratio) in DI water was prepared and autoclaved for 1 hr while stirring. This yielded a supersaturated solution which was homogeneous and free of bubbles. Using a water bath, the temperature of the PVA/PVP solution was maintained at 65° C. In order to create a sufficient drug load on the wire, a 25% concentration of adenosine was used in the drug layer. Adenosine has poor solubility in water ([…]) and commercial adenosine has a mean particle size of 55 microns which would have compromised the lubricity of the wire. Utilizing a two-pass jet-milling process, the solid phase adenosine particles were reduced in size to less than 5 microns. Micronized adenosine was mixed in DI water, sonicated for 15 min and then added to the PVA/PVP mixture and the PVA/PVP/adenosine mixture was stirred until a homogeneous solution was obtained. […] Next, the guidewire coated with the PEG-silanol primer was coated with the adenosine-containing hydrogel. Multiple hydroxyl groups in the hydrogel form hydrogen bonds with multiple ether oxygens in the primer, thus creating an extensive network of hydrogen bonds between the drug-containing hydrogel layer and the primer layer (FIG. 14, Reaction 4).

coronary flow velocity = settings: continuous infusion into the LAD at 50 μg/kg/min; previous studies; cited from earlier work
[4] = cited from earlier work
[5] = in plasma or blood; cited from earlier work

## COc1ccc([C@@H]2Sc3ccccc3N(CCN(C)C)C(=O)[C@@H]2OC(C)=O)cc1 [diltiazem]
[1]; FIG. 6, polymer with a ratio of PVA/PVAC, two freeze/thaw cycles
  time of complete elution of the drug from guidewire: 10 min

## CC(=O)OCC[N+](C)(C)C [Ach, acetylcholine]
Yucatan mini-pigs
  reduction in CBFV: ~80%

## Nc1ncnc2c1ncn2[C@@H]1O[C@H](CO)[C@@H](O)[C@H]1O [adenosine, Adenosine]
[1]; Example 2, protocol of Example 1 with 3-8 freeze/thaw cycles and barrier concentration 15.0% (w/w)
  time in which the majority of drug elution occurred: 30 min
[1]; FIG. 4, distal 10 cm of guidewires, inner coat 7.5% (w/w) PVA/PVP with 1.5 mg adenosine, outer barrier 10.0% (w/w) PVA/PVP, 2 freeze/thaw cycles, curvilinear
  time of complete elution of the drug from guidewire: 60 min
[1]; FIG. 5, 8 freeze/thaw cycles, polymer 10% inner and 15% outer layer
  drug eluted over 20 minutes: greater than 90%
[1]; FIG. 7, guidewires coated with polymer mixture of 3:1 and 1:1 ratios of PVAC to PVA
  release profile: optimal for a typical coronary interventional procedure
[2]; Example 6 guidewires
  time by which most of the remainder was released: ≤ 40 min
[2]; Example 6 guidewires (PVA/PVP drug layer, PVA/PVAc 1:3 barrier), over 60 min
  total amount of released adenosine: 2.7±0.2 mg/10 cm length of wire
[2]; Example 6 guidewires, relative to 60-min timepoint
  adenosine released in the first 20 min: approximately 60%
[3]
  particle size stability in the hydrogel: stable
Coronary flow velocity
  increase in CFV: approximately 250%
[4]
  solubility in water: 80 mg/mL (≈ 299 mM)
[5]
  half-life: seconds
